The source of these data is patent US20180148514A1, “MULTIVALENT MEDITOPES, MEDITOPE-BINDING ANTIBODIES AND USES THEREOF” (City of Hope, priority 2014, published 2018).

The subject of one data set is CLL patients. The conditions noted are these: cited from earlier work.
The next data set has as its system MDA-MB-468 cells. Nature of the data set: FACS binding of meditopes to MDA-MB-468 cells pre-treated with cetuximab or M425. The class given is cell-based. To be noted: with or without cetuximab or M425 pre-treatment.
Another data set addresses pertuzumab I83E IgG. Nature of the data set: SPR, meditope binding to immobilized pertuzumab I83E IgG. The conditions noted are these: two fold dilutions from approximately 10 um to 156 nM. On the procedure:
The binding of a meditope to a meditope-enabled antibody containing the I83E modification was next examined in an in vitro binding study using surface plasmon resonance (SPR) and a meditope enabled antibody pertuzumab with the I83E modification. […] Concentrations were two fold dilutions from approximately 10 um to 156 nM. […] Further optimization of the experiment will be required due to the long off rate observed.

[1] abbreviates: Phase I, 46 heavily pretreated CLL patients, single agent.

Take “lumiliximab: primatized anti-CD23 mAb with cynomolgus macaque variable regions and human constant regions (IgG1-κ)”: in the data set with CLL patients (setting [1]), the objective responses entry is given as “no objective Complete Responses (CRs) or Partial Responses (PRs) were observed”, the “patients with decreased peripheral blood lymphocyte counts” value was 91% and the “patients with reduced enlarged lymph node size” value was 52%. In the data set with CLL patients (human, in vivo), the “MTD (maximum tolerated dose)” value is recorded as “not reached” and the immunosuppression entry is “not immunosuppressive”. Moreover, the “adverse events (AEs)” value in the data set on CLL patients (majority of AEs) is “limited to grade 1/2”.
C-QFDLSTRRLK-C [cQFD]: the “binding to cells (FACS)” value in the data set on MDA-MB-468 cells was “bound to EGFR positive MD-MBA-468 cells only in the presence of cetuximab”. The Kd fit entry at pertuzumab I83E IgG was “no Kd could be fit to the data”.
